SMILES | logP
Oc1c(Cl)cc(Cl)c2ccc(C=Cc3ccc(C=Cc4ccc5c(Cl)cc(Cl)c(O)c5n4)cc3)nc12 | 9.69
Oc1cccc2ccc(C=Cc3ccccc3Cl)nc12 | 4.99
CCOc1ccccc1C=Cc1ccc2cccc(O)c2n1 | 4.8
CCOc1ccc(C=Cc2ccc3c(Cl)cc(Cl)c(O)c3n2)cc1 | 6.25
Oc1c(Cl)cc(Cl)c2ccc(C=Cc3ccccc3Cl)nc12 | 6.49
Oc1ccccc1C=Cc1ccc2ccccc2n1 | 4.48
Oc1ccc(C=Cc2ccc3c(Cl)cc(Cl)c(O)c3n2)cc1 | 5.72
Clc1ccccc1C=Cc1ccc2cccc(Cl)c2n1 | 5.69
Oc1cccc(C=Cc2ccc3cccc(O)c3n2)c1 | 4.18
Oc1ccc(C=Cc2ccc3c(Cl)cc(Cl)c(O)c3n2)c(O)c1 | 5.17
CCOc1ccc(C=Cc2ccc3cccc(O)c3n2)cc1 | 4.75
CCOc1ccccc1C=Cc1ccc2c(Cl)cc(Cl)c(O)c2n1 | 6.28
Oc1ccc(C=Cc2ccc3cccc(O)c3n2)c(O)c1 | 3.67
Oc1ccc(C=Cc2ccc3c(Cl)cc(Cl)c(O)c3n2)cc1O | 5.55
Oc1ccccc1C=Cc1ccc2c(Cl)cc(Cl)c(O)c2n1 | 5.35
Oc1cc(O)cc(C=Cc2ccc3c(Cl)cc(Cl)c(O)c3n2)c1 | 5.44
